PMC4747407 (Oncotarget, 2015)
“Also recorded” adds a separate entry of the source.

Assays:
[1] = system: NCI-H460 human lung cancer xenografts; assay: NCI-H460 lung cancer xenograft model, antitumor activity; format: in vivo, mouse
[2] = system: DNA repair mutant DT40 cell lines; assay: Proliferation assay in panel of isogenic DNA repair mutant DT40 cell lines (XTT); format: cell-based, avian
[3] = system: MX-1 human breast cancer xenografts; format: in vivo
Procedure: All studies were performed according to IACUC approved protocols. The general health of mice was monitored daily. Tumor volume was determined by caliper measurements (mm), using the formula (l x w^2)/2 = mm^3, where l and w refer to the larger and smaller perpendicular dimensions collected at each measurement. Tumor dimensions were recorded twice per week starting when tumors reached an approximate size of 100 to 150 mm^3. Body weights were recorded twice per week and relative body weight was calculated as follows: Relative body weight = (body weight on day of measurement/body weight on first day of treatment).
Carboplatin combination in MX-1 orthotopic xenografts: female nude mice were implanted with MX-1 cells (0.5 × 10^6) in the thoracic mammary fat pad. Treatment started on day 3 when the average tumor size was approximately 50 mm^3. Carboplatin was administered as a single intravenous dose at 60 mg/kg on day 3 or 4.

[4] = system: Wnt1 model tumors; assay: Gene expression of Wnt-related genes in Wnt1 model tumors (mouse TLDA); format: in vivo; settings: 7 days of drug treatment
Procedure: (§1) Gene expression profiling was performed using a custom designed TaqMan® low density array (TLDA). Total RNA was isolated from cell lines using RNeasy Mini Kit (Qiagen) and from xenograft tumor FFPE tissue using RecoverAll Total Nucleic Acid Isolation (Ambion). Human and mouse, real-time qPCR TLDAs (384-well micro fluidic card) were designed with genes selected based on their involvement in Wnt signalling (see supplementary Tables 2 and 3 for lists of genes on TLDAs). cDNA was generated from total RNA using High Capacity cDNA Reverse Transcription kit (Life Technologies) or SuperScript® VILO™ Master Mix (Life Technologies). 100 ng cDNA was combined with TaqMan® Gene Expression Master Mix (Life Technologies) for the cell lines and TaqMan® Advanced FAST Master Mix (Life Technologies) for the xenograft tissue for each port (in duplicate). TLDAs were run based on recommended cycling times for each master mix. Ct values were calculated and imported into GeneData Analyst for further analysis. To calculate the ΔCts, gene expression was normalized to several housekeeping genes. Relative fold change was calculated by comparison to the DMSO or vehicle-treated controls for each sample. A student's t-test was used to calculate P-values and hierarchical clustering used Manhattan distance and complete linkage plotting of selected significant genes to generate heat maps.

[5] = Gastrointestinal toxicity in preclinical studies; format: in vivo
[6] = system: PARP activity in NCI-H460 tumor tissue; assay: Pharmacodynamic PARP inhibition (PAR ELISA) in NCI-H460 tumors; format: in vivo, mouse
Procedure: Control group (10 mice) were treated with vehicle (0.5% methyl cellulose in water). Mice were euthanized and tumors were harvested at 1, 6, 12, 24 and 36 hours post treatment (5 mice per treatment per time point). Individual tumors were removed and flash frozen in liquid nitrogen for PAR analysis. PARP inhibition was also evaluated in tumors from NCI-H460 human lung cancer subcutaneous xenografts. Control group animals (24 mice) were treated with vehicle (0.5% methyl cellulose). […] Mice were euthanized and tumors were harvested at 0.25, 1, 6, 12, 24 and 36 hours post-treatment. PAR levels were determined by ELISA using the procedure provided by Trevigen and comparing to a PAR standard curve. Protein concentration of tumor lysates was determined using the BCA assay (Thermo Scientific). Results were converted from pg PAR/assay well to ng PAR/mg protein. Data was pooled from multiple experiments. The percent of control for each time point was calculated by using an average of all control replicates from that experiment.

[7] = system: P-glycoprotein; parameters: method as in PMID 22246237; settings: cited from earlier work
[8] = parameters: method as in PMID 22246237; settings: cited from earlier work
[9] = system: PARP3 or PARPs 6–16; assay: 32P-NAD+ auto-PARylation selectivity screen; format: biochemical, human; settings: 32P-NAD+ auto-PARylation screen
Procedure: (§2) Samples were analyzed via phosphorimaging.

[10] = small phase 1 study; cited from earlier work
[11] = system: DLD-1 cells; assay: Gene expression profiling of Wnt-related genes (TLDA qPCR) in DLD-1 cells; format: cell-based, human; settings: 30 μmol/L, 72 h
Procedure: as §1

[12] = target: TNKS1/2; assay: TNKS1/2 inhibition, summary over the enzyme assays; format: biochemical, human; settings: range over the assays used
Procedure: as §2

[13] = system: MDA-MB-436 human breast cancer xenografts; assay: MDA-MB-436 subcutaneous xenograft model, single agent; format: in vivo, mouse
Procedure: (§3) All studies were performed according to IACUC approved protocols. The general health of mice was monitored daily.

[14] = system: SW480 cells; assay: Gene expression profiling of Wnt-related genes (TLDA qPCR) in SW480 cells; format: cell-based, human; settings: 30 μmol/L, 72 h
Procedure: as §1

[15] = target: T1, PARP1 (Gallus gallus, UniProt P26446); assay: PARP trapping: western blot of chromatin-bound fraction of MMS-damaged DT40 cells; format: cell-based, avian; settings: 0.05% MMS, inhibitor 0.1–10 μmol/L, 30 min
T1 construct: endogenous in cells; host or cells: DT40 cells
Procedure: Following binding of appropriate secondary antibodies labeled with IRDye® (LI-COR), image analysis and quantitation of blots was performed with Image Studio software for the LI-COR Odyssey system (version 2.1.10).

[16] = system: Wnt-mediated hair re-growth; assay: Re-growth of hair after depilation in C57BL/6 mice; format: in vivo, mouse; settings: 30, 100 or 300 mg/kg oral once daily for 12 days
Excerpt: Re-growth of hair was monitored and recorded by photography.

[17] = system: B16-F10 mouse melanoma isografts; assay: B16-F10 mouse melanoma isograft model, combination with TMZ; format: in vivo
Procedure: as §3
TMZ combination in B16-F10 isograft model: female C57BL/6 mice were inoculated subcutaneously with B16-F10 cells (2 × 10^5). Following randomization by body weight, drug treatment was initiated 1 day post-inoculation. […] TMZ was administered daily on days 1 to 5 at 50 mg/kg as a single agent or in combination. […] The control group was treated with vehicle (0.5% methyl cellulose in water). E7449 or vehicle was administered first and when dosing of all animals was complete TMZ was administered to animals receiving the combination.

[18] = E7449 10, 30, 100 mg/kg + TMZ 50 mg/kg

T1 sequence (P26446 whole entry): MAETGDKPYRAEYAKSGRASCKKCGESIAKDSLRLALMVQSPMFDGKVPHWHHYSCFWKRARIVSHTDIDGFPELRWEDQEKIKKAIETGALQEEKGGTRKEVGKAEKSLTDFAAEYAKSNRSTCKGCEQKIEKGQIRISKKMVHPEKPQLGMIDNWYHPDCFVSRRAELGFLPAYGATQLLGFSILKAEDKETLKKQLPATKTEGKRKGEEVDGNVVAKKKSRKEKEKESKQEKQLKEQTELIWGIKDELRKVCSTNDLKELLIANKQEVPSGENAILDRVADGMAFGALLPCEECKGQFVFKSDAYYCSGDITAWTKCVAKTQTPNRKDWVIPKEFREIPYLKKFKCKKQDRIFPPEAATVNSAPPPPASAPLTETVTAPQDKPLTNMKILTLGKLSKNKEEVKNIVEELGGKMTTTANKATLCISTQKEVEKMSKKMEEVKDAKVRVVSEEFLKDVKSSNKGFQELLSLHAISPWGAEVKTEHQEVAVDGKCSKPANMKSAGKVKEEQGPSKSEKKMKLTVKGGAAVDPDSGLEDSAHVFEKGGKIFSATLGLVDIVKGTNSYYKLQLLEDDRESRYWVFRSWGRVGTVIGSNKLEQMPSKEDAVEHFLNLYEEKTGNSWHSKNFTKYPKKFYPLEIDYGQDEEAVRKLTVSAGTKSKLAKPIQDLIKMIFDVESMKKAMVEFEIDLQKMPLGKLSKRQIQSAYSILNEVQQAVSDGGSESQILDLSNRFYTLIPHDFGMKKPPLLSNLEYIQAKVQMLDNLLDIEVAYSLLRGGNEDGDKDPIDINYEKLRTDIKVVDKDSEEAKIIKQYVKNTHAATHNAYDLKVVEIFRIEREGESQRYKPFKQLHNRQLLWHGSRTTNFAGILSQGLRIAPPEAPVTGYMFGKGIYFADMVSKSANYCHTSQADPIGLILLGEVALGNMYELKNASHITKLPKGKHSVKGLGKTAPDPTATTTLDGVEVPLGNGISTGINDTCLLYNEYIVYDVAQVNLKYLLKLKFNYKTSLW

O=c1[nH]nc2c3c(cccc13)N=C(CN1Cc3ccccc3C1)N2 [E7449, 8-(isoindolin-2-ylmethyl)-2,9-dihydro-3H-pyridazino[3,4,5-de]quinazolin-3-one]
antitumor activity [1]: No antitumor activity | sensitivity of cell lines deficient in NHEJ repair ([2]; KU70, PKCS, LIGIV deficient DT40): Resistance | effect of loss of POLQ on sensitivity ([2]; POLQ deficient DT40): no effect | sensitivity of DT40 cells lacking PARP expression ([2]; versus wild type DT40): significantly resistant | tolerability of combination with carboplatin ([3]; E7449 100 mg/kg + carboplatin 60 mg/kg): well tolerated with no signs of toxicity or significant body weight loss | antitumor activity, E7449 started 1 day post-carboplatin ([3]; E7449 100 mg/kg once daily + carboplatin 60 mg/kg i.v.): closely resembled that observed with carboplatin alone | antitumor activity, E7449 simultaneously with or prior to carboplatin ([3]; E7449 100 mg/kg once daily + carboplatin 60 mg/kg i.v. single dose): enhanced the antitumor activity of carboplatin | antitumor activity, single agent ([3]; E7449 100 mg/kg oral once daily, carboplatin single i.v. dose 60 mg/kg): inactive; also recorded: No antitumor activity | expression of Wnt-related genes CAR2, FZD9, LEF1, VIL1 in tumors [4]: also altered in tumors from E7449-treated mice, albeit to a lesser extent | gastrointestinal toxicity [5]: no gastrointestinal toxicity was observed | PARP inhibition in tumor at early time points ([6]; single dose 1 mg/kg (lowest), 0.25 and 1 hour): significant PARP inhibition | duration of complete PARP inhibition ([6]; single dose 100 mg/kg): up to 12 hours | time of rebound in PARP activity ([6]; single dose 100 mg/kg): 24 h | time of at least partial recovery of PARP activity to basal levels ([6]; single dose 1 and 3 mg/kg): ≤ 6 h | P-glycoprotein substrate [7]: not a substrate for P-glycoprotein | brain penetration [8]: brain penetrable | oral bioavailability [8]: orally bioavailable | inhibitory activity on PARP3 or PARPs 6–16 [9]: Significant inhibitory activity was not observed | dose-limiting toxicity [10]: fatigue | tolerability in cancer patients [10]: generally well tolerated | number of Wnt-related genes with significantly altered expression [11]: 40 genes | IC50 [12]: 50 to 120 nM | tolerability ([13]; 30 or 100 mg/kg once daily for 28 days): well-tolerated without any significant body weight loss or deaths | antitumor activity, single agent ([13]; 30 or 100 mg/kg oral once daily for 28 days): statistically significant antitumor activity | number of Wnt-related genes with significantly altered expression [14]: 30 genes | PARP1 trapping onto chromatin [15]: binding of PARP1 to chromatin in a dose responsive manner | hair re-growth [16]: significantly delayed | growth of subcutaneous tumors, single agent ([17]; E7449 100 mg/kg or TMZ 50 mg/kg, oral once daily): moderately inhibited | animal lethality, combination with TMZ [17, 18]: No animal lethality occurred | body weight, combination with TMZ [17, 18]: body weight loss was observed in all 3 combination groups | tumor growth inhibition, combination with TMZ ([17]; E7449 10, 30 and 100 mg/kg + TMZ 50 mg/kg, oral): significantly enhanced tumor growth inhibition
